Patent publication US11655246B2, “Aminothiazole compounds as inhibitors of CTPS1” (STEP PHARMA S.A.S., priority 2017, dated 2023)
Read-outs that look alike come from different tables or passages of the source.

Molecular target: T1, human CTPS1 (Homo sapiens, UniProt P17812)
T1 construct: purchased Proteros biostructures GmbH
T1 sequence (P17812 1-591): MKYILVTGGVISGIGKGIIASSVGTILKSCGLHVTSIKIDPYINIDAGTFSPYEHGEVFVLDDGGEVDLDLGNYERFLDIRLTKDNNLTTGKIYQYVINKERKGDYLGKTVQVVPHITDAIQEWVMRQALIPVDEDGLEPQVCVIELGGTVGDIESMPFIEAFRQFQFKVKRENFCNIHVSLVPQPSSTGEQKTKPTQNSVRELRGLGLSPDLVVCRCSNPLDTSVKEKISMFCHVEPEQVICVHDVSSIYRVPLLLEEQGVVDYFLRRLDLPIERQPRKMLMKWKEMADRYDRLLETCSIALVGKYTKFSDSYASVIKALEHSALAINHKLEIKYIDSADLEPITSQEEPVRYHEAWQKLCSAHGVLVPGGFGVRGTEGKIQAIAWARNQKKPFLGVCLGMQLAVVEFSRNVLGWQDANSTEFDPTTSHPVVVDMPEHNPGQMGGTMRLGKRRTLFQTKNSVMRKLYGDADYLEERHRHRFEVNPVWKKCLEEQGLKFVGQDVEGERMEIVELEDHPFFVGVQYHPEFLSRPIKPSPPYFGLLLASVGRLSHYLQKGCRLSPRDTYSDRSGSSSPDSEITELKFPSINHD
Assay: Human CTPS1 enzyme inhibition (ADP-Glo Max assay)
Assay type: biochemical
Conditions: read-out: CTPS1 (Human CTPS1 Enzyme Inhibition data grouped by potency range)
In short: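 ADP-Glo Max luminescence detection of ATP-to-ADP conversion by the enzyme, in 50 mM Tris, 10 mM MgCl2, 0.01% Tween-20, pH 8.0, with 2 mM L-cysteine added fresh. Enzyme preincubated with compound 10 minutes at 25° C. Percentage inhibition calculated per compound concentration.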

[1] = Table 18, additional potency data, 25° C.

SMILES	IC50 (Table 17, 25° C.) [µM]	IC50 [1] [µM]
CC(C(=O)Nc1ccc(-c2cccnc2)cc1)c1csc(NS(=O)(=O)C2CC2)n1 (stereo not drawn) [T102]	< 0.1	
CC(C)(C(=O)Nc1ccc(-c2cncc(C(F)(F)F)n2)cc1)c1csc(NS(C)(=O)=O)n1 [T394, 2-methyl-2-(2-(methylsulfonamido)thiazol-4-yl)-N-(4-(6-(trifluoromethyl)pyrazin-2-yl)phenyl)propanamide]		< 0.1
CCC(C(=O)N(C)c1ccc(-c2cccnc2)cc1)c1csc(NS(=O)(=O)C2CC2)n1 (stereo not drawn) [T315]	0.1 to 1	
Cc1sc(NS(=O)(=O)C2CC2)nc1C(C)(C)C(=O)Nc1ccc(-c2cncc(Cl)c2)cc1 [T314]	0.1 to 1	
COC(C)(C)c1cncc(-c2ccc(NC(=O)C(C)(C)c3csc(NS(=O)(=O)C4CC4)n3)cc2)n1 [T375, 2-(2-(cyclopropanesulfonamido)thiazol-4-yl)-N-(4-(6-(2-methoxypropan-2-yl)pyrazin-2-yl)phenyl)-2-methylpropanamide]		0.1 to 1
CCc1cc(-c2cncc(C#N)c2)cc(CC)c1NC(=O)C(C)(C)c1csc(NS(=O)(=O)C2CC2)n1 [T349, N-(4-(5-cyanopyridin-3-yl)-2,6-diethylphenyl)-2-(2-(cyclopropanesulfonamido)thiazol-4-yl)-2-methylpropanamide]		0.1 to 1
CCOc1cncc(-c2ccc(NC(=O)C(CC)c3csc(NS(=O)(=O)C4CC4)n3)c(C)c2)n1 (stereo not drawn) [T441]		< 0.1
CC(C)OC(C(=O)Nc1ccc(-c2cncc(C(F)(F)F)n2)cn1)c1csc(NS(=O)(=O)C2CC2)n1 (stereo not drawn) [T172]	< 0.1	
CCOc1cncc(-c2ccc(NC(=O)C(C)(C)c3nc(NS(=O)(=O)C4CC4)sc3Cl)cc2)n1 [T376, 2-(5-chloro-2-(cyclopropanesulfonamido)thiazol-4-yl)-N-(4-(6-ethoxypyrazin-2-yl)phenyl)-2-methylpropanamide]		0.1 to 1
